The results in this text go back to patent publication US8258122B2, “3-([1,2,4]triazolo[4,3-a]pyridin-7-yl)benzamide derivatives” (Almirall, S.A., priority 2007, dated 2012).

SMILES strings stand for the structures.

One may read the IC50 as the concentration that inhibits the measured activity by half.

The target in the assay is T1, human p38alfa (SAPKa) enzyme (Homo sapiens, UniProt Q16539).
T1 construct: purchased University of Dundee
T1 sequence (Q16539 whole entry): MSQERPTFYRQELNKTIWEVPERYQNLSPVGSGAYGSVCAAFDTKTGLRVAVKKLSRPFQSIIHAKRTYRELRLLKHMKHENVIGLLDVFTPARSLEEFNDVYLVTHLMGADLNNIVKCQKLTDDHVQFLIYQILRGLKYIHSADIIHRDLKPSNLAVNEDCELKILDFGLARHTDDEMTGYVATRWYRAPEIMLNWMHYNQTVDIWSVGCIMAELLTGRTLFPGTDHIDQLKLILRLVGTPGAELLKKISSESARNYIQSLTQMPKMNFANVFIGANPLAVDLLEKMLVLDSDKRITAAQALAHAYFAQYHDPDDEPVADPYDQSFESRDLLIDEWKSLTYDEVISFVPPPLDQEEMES
Kind of assay: p38 enzymatic inhibition assay (FRET, biotinylated ATF2 substrate). Type of assay: biochemical. The following applies: 1 h pre-incubation; ATF2 0.62 μM, ATP 60 μM; 25° C.; read-out: p38α IC50. The procedure: Enzymatic activity assay was performed in 96-well microtiter plates (Corning, catalog number # 3686) using a total volume of 50 μl of an assay buffer composed of 50 mM HEPES pH 7.5, 10 mM MgCl2, 1.75 mM Na3VO4.
Various concentrations of the test compound or vehicle controls were pre-incubated for one hour with 0.055 μg/ml of the human p38alfa (SAPKa) enzyme (obtained from University of Dundee). The reaction started by addition of biotinylated ATF2 substrate and ATP in concentrations around their Km values (final concentration 0.62 μM and 60 μM respectively) and took place for one hour at 25° C. Addition of the detection reagents, streptavidin—XL665 and anti-phosphoresidue antibody coupled to Europium cryptate, caused the juxtaposition of the cryptate and the XL665 fluorophore, resulting in fluorescence energy transfer (FRET). The FRET intensity depends on the amount of bounded cryptate antibody, which is proportional to the extent of substrate phosphorylation. FRET intensity was measured using Victor 2V spectrofluorometer.
Data were analyzed by non-linear regression (Hill equation) to generate a dose-response curve. The calculated IC50 value is the concentration of the test compound that caused a 50% decrease in the maximal FRET intensity.
For `Cc1ccc(C(=O)NC2CC2)cc1-c1ccn2c(-c3ccccc3Cl)nnc2c1` [Example 6, 3-(3-(2-Chlorophenyl)-[1,2,4]triazolo[4,3-a]pyridin-7-yl)-N-cyclopropyl-4-methylbenzamide], the IC50 came to 0.006 µM.
The same measure for `Cc1ccc(C(=O)NC2CC2)cc1-c1ccn2c(-c3ccncc3Cl)nnc2c1` [Example 30, 3-[3-(3-Chloropyridin-4-yl)[1,2,4]triazolo[4,3-a]pyridin-7-yl]-N-cyclopropyl-4-methylbenzamide]: 0.038 µM.
As for `Cc1ccc(C(=O)NC2CC2)cc1-c1cc2nnc(C(C)(C)C)n2cc1F` [Example 18, 3-(3-tert-Butyl-6-fluoro-[1,2,4]triazolo[4,3-a]pyridin-7-yl)-N-cyclopropyl-4-methylbenzamide], the figure is 0.0032 µM; as for `Cc1c(F)cc(C(=O)NC2CC2)cc1-c1ccn2c(-c3ccncc3Cl)nnc2c1` [Example 31, 3-[3-(3-Chloropyridin-4-yl)[1,2,4]triazolo[4,3-a]pyridin-7-yl]-N-cyclopropyl-5-fluoro-4-methylbenzamide], 0.0003 µM; as for `Cc1c(F)cc(C(=O)NC2CC2)cc1-c1ccn2c(C(C)C)nnc2c1` [Example 28, N-cyclopropyl-3-fluoro-5-(3-isopropyl[1,2,4]triazolo[4,3-a]pyridin-7-yl)-4-methylbenzamide], 0.003 µM.
For `Cc1ccc(C(=O)NC2CC2)cc1-c1ccn2c(N3CCCC3)nnc2c1` [Example 16, N-Cyclopropyl-4-methyl-3-(3-pyrrolidin-1-yl-[1,2,4]triazolo[4,3-a]pyridin-7-yl)-benzamide], the IC50 was found to be 0.083 µM.
`Cc1c(F)cc(C(=O)NC2CC2)cc1-c1ccn2c(C3CCOCC3)nnc2c1` [Example 33, N-Cyclopropyl-3-fluoro-4-methyl-5-[3-(tetrahydro-2H-pyran-4-yl)[1,2,4]triazolo[4,3-a]pyridin-7-yl]benzamide]: the IC50 worked out at 0.03 µM.
The same measure for `Cc1c(F)cc(C(=O)NC2CC2)cc1-c1cc2nnc(C(C)(C)C)n2cc1F` [Example 19, 3-(3-tert-Butyl-6-fluoro-[1,2,4]triazolo[4,3-a]pyridin-7-yl)-N-cyclopropyl-5-fluoro-4-methylbenzamide]: 0.002 µM; for `Cc1c(F)cc(C(=O)NC2CC2)cc1-c1c(F)cn2c(C(C)(C)N)nnc2c1F` [Example 46, 3-[3-(1-Amino-1-methylethyl)-6,8-difluoro[1,2,4]triazolo[4,3-a]pyridin-7-yl]-N-cyclopropyl-5-fluoro-4-methylbenzamide]: 0.0119 µM; for `Cc1c(F)cc(C(=O)NC2CC2)cc1-c1ccn2c(C(C)(C)C)nnc2c1` [Example 9, 3-(3-tert-Butyl-[1,2,4]triazolo[4,3-a]pyridin-7-yl)-N-cyclopropyl-5-fluoro-4-methylbenzamide]: 0.002 µM.
The same measure for `Cc1ccc(C(=O)NC2CC2)cc1-c1ccn2c(C(C)(C)C)nnc2c1` [Example 1, 3-(3-tert-Butyl-[1,2,4]triazolo[4,3-a]pyridin-7-yl)-N-cyclopropyl-4-methylbenzamide]: 0.016 µM; for `Cc1c(F)cc(C(=O)NC2CC2)cc1-c1ccn2c(C(=O)N3CCCC3)nnc2c1` [Example 42, N-Cyclopropyl-3-fluoro-4-methyl-5-[3-(pyrrolidin-1-ylcarbonyl)[1,2,4]triazolo[4,3-a]pyridin-7-yl]benzamide]: 0.046 µM; for `Cc1c(F)cc(C(=O)NC2CC2)cc1-c1ccn2c(C(C)(C)O)nnc2c1` [Example 45, N-Cyclopropyl-3-fluoro-5-[3-(1-hydroxy-1-methylethyl)[1,2,4]triazolo[4,3-a]pyridin-7-yl]-4-methylbenzamide]: 0.0031 µM.
As for `Cc1c(F)cc(C(=O)NC2CC2)cc1-c1c(F)cn2c(C(C)(C)N(C)C)nnc2c1F` [Example 47, N-Cyclopropyl-3-{3-[1-(dimethylamino)-1-methylethyl]-6,8-difluoro[1,2,4]triazolo-[4,3-a]pyridin-7-yl}-5-fluoro-4-methylbenzamide], the figure is 0.0154 µM.
For the molecule `CO[C@@H](C)c1nnc2cc(-c3cc(C(=O)NC4CC4)ccc3C)ccn12` [Example 38, N-Cyclopropyl-3-{3-[(1S)-1-methoxyethyl][1,2,4]triazolo[4,3-a]pyridin-7-yl}-4-methylbenzamide], the IC50 was 0.038 µM.
Consider `Cc1ccc(C(=O)NC2CC2)cc1-c1ccn2c(NCC3CC3)nnc2c1` [Example 7, N-Cyclopropyl-3-(3-(cyclopropylmethylamino)-[1,2,4]triazolo[4,3-a]pyridin-7-yl)-4-methylbenzamide], for which the IC50 came to 0.075 µM.
As for `Cc1c(F)cc(C(=O)NC2CC2)cc1-c1c(F)cn2c(C3CC3)nnc2c1F` [Example 23, N-cyclopropyl-3-(3-cyclopropyl-6,8-difluoro[1,2,4]triazolo[4,3-a]pyridin-7-yl)-5-fluoro-4-methylbenzamide], the figure is 0.01 µM.
